Assay results published in patent EP1477475A1, “Compounds for use as a medicine increasing the contractility of a heart, a heart muscle or cells of a heart muscle” (Procorde GmbH, priority 2003, dated 2004).
“Also recorded” adds a separate entry of the source.

Assays:
[1] = test system: Gβγ-dependent activity of G protein-coupled receptor kinase 2 (GRK-2); experiment: Rhodopsin phosphorylation assay (Gβγ-dependent GRK-2 activity); format: biochemical, bovine
Experimental: All substances derived from the virtual screen were tested for their ability to inhibit the Gβγ-dependent activity of G protein-coupled receptor kinase 2 (GRK-2) in a rhodopsin phosphorylation assay. Stock solutions of 10mM of all compounds were dissolved in DMSO, for all assays (in vitro and cellular) DMSO was added in the same amount to the respective control group. The initial compound screen was carried out in a 96 well plate formate. The assay mix contained 15µM ATP, 10mM MgCl2, 20nM Gβγ (from bovine brain), 60nM GRK-2(purified from baculoviral culture), ^32P-ATP (approximately 200.000 cpm/assay point) and 10µM of the respective compound in 50µl assay buffer (20mM Hepes pH 7.2, 2mM EDTA); 600nM rhodopsin (purified from bovine retina) was added in the dark. Stimulation was achieved by incubation for 10-15 min under yellow light. Subsequently, the mix was aspirated with a cell harvester and applied onto a glass-fiber membrane (GF/C); then, the assay plate was washed 10 times with 10ml assay buffer each. The membrane was counted in a Wallac counter (Cerenkov). Additionally, 45µl of the assay mix were counted to determine the total amount of radioactivity in the assay. […]
To test the ability of the compounds to inhibit Gβγ-dependent signalling a rhodopsin phosphorylation assay may be used. […] The effect of different compound concentrations may be determined in the same assay. […]

[2] = test system: native M1 receptor in HEK 293 cells; experiment: Calcium measurements (Fura-2) in HEK 293 cells after carbachol (Gq-coupled pathway); format: cell-based; settings: Figure 8; 30 µM compound, 30 minutes pre-incubation; 100 µM carbachol
[3] = test system: isolated rabbit cardiomyocytes; experiment: Measurement of cell shortening of isolated cardiomyocytes; format: cell-based; settings: Figure 10; 10 µM COM1 for 10 minutes, then isoproterenol 1x10^-9 - 1x10^-7M; n = 8 cells per group
Experimental: Female New Zealand White rabbits (12 weeks old) were anesthesized with thiopental (75-1 00mg/kg) and 500 U heparin were injected intravenously. The thorax was opened and the heart was excised and put into ice-cold NaCl solution (0.9%). Fat and pericardium were removed. The aorta was attached to a perfusion system connected to a pump and the heart was retrogradely pefused at a flow rate of 20-40 ml/min with oxygenated (95% oxygen, 5% CO2) Powell medium (110mM NaCl, 2.5mM KCI, KH2PO4 1.2 mM, MgSO4 1.2 mM, NaHCO3 25 mM, Glucose 11 mM; pH 7.4) until all blood was washed out. […]
Cell shortening was measured with an electro-optical monitoring system connected to an online digitalized assessment of amplitude and velocity of shortening and relaxation (Scientific Instruments). […] Cell shortening was monitored using an edge detection camera and the data were transferred to a computer and fractional shortening was calculated for a single cell.
Overexpression of proteins which can bind Gβγ subunits, such as phosducin or the C-terminus of GRK-2, result in an increased contractility of cardiomyocytes. Therefore, the compounds' effects on this important parameter were determined. In isolated rabbit cardiomyocytes, basal, compound-incubated and isoproterenol- stimulated contractility were measured and expressed as fractional shortening of the single cell.

O=C(Nc1ccccc1C(=O)O)c1ccc2c(c1)C(=O)N(c1ccc(Oc3ccc(N4C(=O)c5ccc(C(=O)Nc6ccccc6C(=O)O)cc5C4=O)cc3)cc1)C2=O [COM2, 2-[({2-[4-(4-{5-[(2-carboxyanilino)carbonyl]-1,3-dioxo-1,3-dihydro-2H-isoindol-2-yl}phenoxy)phenyl]-1,3-dioxo-2,3-dihydro-1H-isoindol-5-yl}carbonyl)amino]benzoic acid]
Effect of increasing concentrations of Gβγ on the inhibition of GRK-2-mediated phosphorylation of rhodopsin ([1]; Figure 3, COM2 3µM, GRK-2 50nM, rhodopsin 100nM, Gβγ 3 to 1000 nM, result at 1000 nM Gβγ): completely blunted; also recorded: completely reversed | Calcium release mediated via the Gq-coupled pathway [2]: does not have an effect

O=C(Nc1ccc(-c2ccc(NC(=O)c3ccc(F)cc3)c(C(=O)O)c2)cc1C(=O)O)c1ccc(F)cc1 [COM1, 4,4'-bis[(4-fluorobenzoyl)amino][1,1'-biphenyl]-3,3'-dicarboxylic acid]
Isoproterenol-stimulated contractility (fractional shortening, contraction amplitude) [3]: positive inotropic effect | Reversal of inhibition of Gβγ-dependent GRK-2 activity by increasing concentrations of the substrate rhodopsin ([1]; Figure 4, GRK-2 50 nM, COM1 30 µM, rhodopsin 10-3000 nM): can be reversed

O=C(C=Cc1ccco1)Nc1ccc(-c2ccc(NC(=O)C=Cc3ccco3)c(C(=O)O)c2)cc1C(=O)O [COM3, 4,4'-bis{[3-(2-furyl)acryloyl]amino}[1,1'-biphenyl]-3,3'-dicarboxylic acid]
Calcium release mediated via the Gq-coupled pathway [2]: displays an inhibitory potential
